# Measured values from patent publication US12344623B2, “Thiazolopyridine derivatives as adenosine receptor antagonists” (Merck Patent GmbH, priority 2019, dated 2025).
# pIC50: −log10 of the molar value.
# How the values were obtained:
# Assay type in all cases: cell-based
# human T cells = test: hTcell data, IL-2 (human T cells, IL-2 readout; method not given); settings: compounds of the present invention
# human A2A receptor = human A2A receptor (Homo sapiens, UniProt P29274); test: Functional A2A receptor activity, recombinant HEK293 cells, cAMP (HTRF), agonist NECA; design: expressed in transfected cells; host or cells: HEK293; settings: read-out: Functional A2A receptor activity, HEK293, cAMP, IC50
# Outline: (§1)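 Cellular cAMP measured by HTRF after 30 min incubation of cells with forskolin, test compounds and agonist. Data normalized to inhibitor control and DMSO neutral control, then curve-fitted.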
# human A2B receptor = target: T1, human A2B receptor (Homo sapiens, UniProt P29275); test: Functional A2B receptor activity, recombinant HEK293 cells, cAMP (HTRF), agonist NECA; settings: read-out: Functional A2B receptor activity, HEK293, cAMP, IC50
# T1 construct: expressed in transfected cells; host or cells: HEK293
# T1 sequence (P29275 1-332): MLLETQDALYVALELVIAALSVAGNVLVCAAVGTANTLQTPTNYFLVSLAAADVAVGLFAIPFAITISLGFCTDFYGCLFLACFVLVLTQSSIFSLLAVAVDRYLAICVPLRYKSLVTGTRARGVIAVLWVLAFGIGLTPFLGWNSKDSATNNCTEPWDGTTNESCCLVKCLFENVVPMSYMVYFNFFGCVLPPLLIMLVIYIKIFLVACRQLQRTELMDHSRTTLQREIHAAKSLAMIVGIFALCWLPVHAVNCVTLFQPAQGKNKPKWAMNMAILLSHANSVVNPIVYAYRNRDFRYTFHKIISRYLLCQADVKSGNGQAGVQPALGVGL
# Outline: as §1
# human A1 receptor = target: T2, human A1 receptor (Homo sapiens, UniProt P30542); test: Functional A1 receptor activity, recombinant CHO cells, cAMP (HTRF), forskolin, agonist CPA; settings: recombinant CHO cells, forskolin, agonist CPA; read-out: Functional A1 receptor activity, CHO, cAMP, IC50
# T2 construct: expressed in transfected cells; host or cells: CHO
# T2 sequence (P30542 1-326): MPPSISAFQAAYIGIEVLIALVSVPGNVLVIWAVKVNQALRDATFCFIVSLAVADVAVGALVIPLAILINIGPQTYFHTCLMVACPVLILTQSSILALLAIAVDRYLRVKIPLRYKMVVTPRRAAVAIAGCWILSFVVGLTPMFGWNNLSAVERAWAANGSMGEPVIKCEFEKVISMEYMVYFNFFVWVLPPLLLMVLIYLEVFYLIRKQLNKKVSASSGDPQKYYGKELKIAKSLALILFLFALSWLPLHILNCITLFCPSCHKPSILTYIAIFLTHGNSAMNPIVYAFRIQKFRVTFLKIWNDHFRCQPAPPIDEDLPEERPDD
# Outline: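 Recombinant CHO cells expressing A1 or A3 receptor (Gi-coupled) were stimulated with forskolin together with test compound and agonist (CPA for A1, IB-MECA for A3), incubated 30 min, then cellular cAMP was read by HTRF. Data were normalized to inhibitor control and DMSO neutral control, then curve-fitted.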
# mouse Pan T cells = test: mTcell assay, IL-2, rescue of cytokine secretion, agonist NECA; settings: mouse Pan T cells, CD3/CD28 activated, NECA 1 μM, IL-2 rescue, 24 h
# Source text: Adenosine (Ado) in tumor microenvironment can inhibit T cell activity by signaling through A2A receptors and suppress cytokine secretion by T cells. […] Potential A2A antagonists or A2A/A2B dual antagonists can rescue T cells from this inhibition. Herein, we describe the in vitro system we established using Pan T cells from mouse spleens to screen potential A2A antagonists or A2A/A2B dual antagonists for their activity. The method described involves the use of CD3/CD28 pre-coated beads to stimulate Pan T cells purified from mouse splenocytes, combined with the addition of A2A agonist along with potential A2A or A2A/A2B dual antagonists to evaluate potentiation of T cell cytokine production.
# Briefly, mouse Pan T cells are purified from spleens of BALB/c mice using Pan T cell isolation kit Mouse II (MACS Miltenyi biotech Cat # Order no. 130-095-130) according to manufacturer's protocol. The purified T cells are seeded in Nunc™ 96-Well Polystyrene Round Bottom Microwell Plates in RPMI medium with 10% heat inactivated fetal bovine serum. The cells are rested at 37° C. for 1 h before activating with CD3/CD28 pre-coated beads (Dynabeads™ Mouse T-Activator CD3/CD28; Cat #11456D). After 30 min the cells are treated with varying doses of test antagonist(s). […] After 24 h incubation IL-2 levels in the supernatants are measured by ELISAs according to manufacturer's protocol (R&D systems Cat #DY402 (IL-2)). Once the concentrations are calculated, the difference of cytokine concentration of DMSO control and agonist alone control is calculated and the percentage of rescue by each concentration of antagonist is calculated by using Microsoft Excel. These percentages of cytokine rescue in a dose dependent manner of antagonist is plotted in GraphPad Prism software and IC50 is calculated.
# Chain of human A2A receptor (P29274 whole entry): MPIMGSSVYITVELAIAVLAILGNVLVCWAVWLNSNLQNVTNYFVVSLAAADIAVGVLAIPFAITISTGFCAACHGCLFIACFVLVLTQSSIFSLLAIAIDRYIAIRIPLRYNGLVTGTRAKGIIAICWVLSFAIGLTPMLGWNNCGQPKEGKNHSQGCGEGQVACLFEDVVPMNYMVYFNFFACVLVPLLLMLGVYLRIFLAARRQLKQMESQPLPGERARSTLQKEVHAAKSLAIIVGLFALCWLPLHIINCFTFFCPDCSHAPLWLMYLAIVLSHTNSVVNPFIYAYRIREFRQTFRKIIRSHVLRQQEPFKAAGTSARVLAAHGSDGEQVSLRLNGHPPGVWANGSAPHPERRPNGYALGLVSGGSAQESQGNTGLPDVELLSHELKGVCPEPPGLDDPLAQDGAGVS
structure (smiles),measurement,setting,value
"COc1ncc(C2=CCOCC2)c2sc(NC(=O)N3CC[C@@]4(CCCOC4)C3)nc12 [Compound 25, (S)-7-Oxa-2-aza-spiro[4.5]decane-2-carboxylic acid [7-(3,6-dihydro-2H-pyran-4-yl)-4-methoxy-thiazolo[4,5-c]pyridin-2-yl]-amide]",pIC50,human T cells,> 8.00
same,pIC50,human A2A receptor,> 8.00
same,pIC50,human A2B receptor,> 8.00
same,pIC50,human A1 receptor,< 6.00
same,pIC50,mouse Pan T cells,> 8.00
